According to patent US10273246B2, “Methods and compositions of substituted 5H-[1,2,5] oxadiazolo [3′,4′:5,6] pyrazino[2,3-B] indole analogs as inhibitors of β-catenin/T-cell factor protein-protein interactions” (University of Utah Research Foundation, priority 2015, dated 2019):
Where two headings read alike, the source gives them in different places. One block for each molecule: values may come before it.

Experiments:
[1] = system: HT29 cells; test: MTs cell viability assay, HT29; assay type: cell-based; details: Homo sapiens, HT-29, 72 h, read-out: IC50 ± SD HT29
Protocol: (§1) Colorectal cancer cell lines, SW480, HT29, an HCT116, and human normal cell line HEK293 were seeded in 96-well plates at 4×10^3 cells/well, maintained overnight at 37° C., and incubated with the tested compounds at various concentrations. Cell viability was monitored after 72 h using a freshly prepared mixture of 1 part phenazine methosulfate (PMS, Sigma) solution (0.92 mg/mL) and 19 parts 3-(4,5-dimethylthiazol-2-yl)-5-(3-carboxymethoxyphenyl)-2-(4-sulfophenyl)-2H-tetrazolium (MTs, Promega) solution (2 mg/mL). Cells were incubated in 10 μL of this solution at 37° C. for 3 h, and A490 was measured. […] Experiments were performed in triplicate.

[2] = target: T1, β-catenin/APC-R3 (Homo sapiens, UniProt P35222); details: FP selectivity assay, known inhibitors, footnotes a, b; read-out: Ki ± SD β-catenin/APC-R3; cited from earlier work
T1 construct: Wild-type β-catenin and its mutants (residues 138-686) were cloned; 6xHis; made in house; host or cells: E. coli BL21 DE3
T1 sequence (P35222 138-686): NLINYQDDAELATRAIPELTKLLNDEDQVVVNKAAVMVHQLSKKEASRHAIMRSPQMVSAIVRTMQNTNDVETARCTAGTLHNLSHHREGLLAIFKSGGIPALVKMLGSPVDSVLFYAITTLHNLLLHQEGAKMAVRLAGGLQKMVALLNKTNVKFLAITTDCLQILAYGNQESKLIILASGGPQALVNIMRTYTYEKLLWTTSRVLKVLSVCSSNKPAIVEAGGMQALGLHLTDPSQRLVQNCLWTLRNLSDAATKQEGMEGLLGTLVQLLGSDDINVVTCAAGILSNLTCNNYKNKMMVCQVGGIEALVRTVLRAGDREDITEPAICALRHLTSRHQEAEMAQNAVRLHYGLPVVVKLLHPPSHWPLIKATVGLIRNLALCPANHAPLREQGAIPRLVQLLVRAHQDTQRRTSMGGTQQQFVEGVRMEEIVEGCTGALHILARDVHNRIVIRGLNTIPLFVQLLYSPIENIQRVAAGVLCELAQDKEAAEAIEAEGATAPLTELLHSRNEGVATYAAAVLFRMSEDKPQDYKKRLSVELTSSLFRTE

[3] = system: HCT116 cells; test: MTs cell viability assay, HCT116; assay type: cell-based, human; details: for IC50: Homo sapiens, HCT-116, MTs cell viability, 72 h, read-out: IC50 ± SD HCT116; for growth of HCT116 cells: result in words, MTs
Protocol: as §1

[4] = system: SW480 cells; test: MTs cell viability assay, SW480; assay type: cell-based, human; details: for IC50: Homo sapiens, SW480, MTs cell viability, 72 h, read-out: IC50 ± SD SW480; for growth of SW480 cells: result in words, MTs
Protocol: as §1

[5] = target: T2, β-catenin/Tcf4 (Homo sapiens, UniProt P35222); details: FP selectivity assay, known inhibitors, footnotes a, b; read-out: Ki ± SD β-catenin/Tcf4; cited from earlier work
T2 sequence (P35222 138-686): T1 sequence (P35222 138-686)

[6] = target: T3, β-catenin/Tcf4 PPI (Homo sapiens, UniProt P35222); test: biochemical
T3 sequence (P35222 138-686): T1 sequence (P35222 138-686)
Text: (§3) After β-catenin and fluorescein-Tcf4 form a protein-protein complex, the fluorophore is attached to a high-molecular-weight protein complex (≥60 kDa) and has a low rotational speed when it is excited by plane-polarized light. […] When an inhibitor completely disrupts the β-catenin/fluorescein-Tcf4 PPI, the fluorophore is only attached to Tcf4 (≤6 kDa), and the emitted light after excitation will be largely depolarized due to a high rotational speed of the fluorophore. AlphaScreen is a bead-based assay. […] On laser excitation at 680 nm, the photo sensitizers inside the donor beads convert ambient oxygen to a singlet oxygen state. Only when the donor and acceptor beads are brought within 200 nm can the singlet oxygen molecules diffuse to the acceptor beads, resulting in extensive emission at 570 nm.

[7] = system: canonical Wnt signaling in pcDNA3.1-β-catenin transfected HEK293 cells; test: TOPFlash luciferase reporter assay, HEK293; assay type: cell-based, human; details: for TOPFlash luciferase activity / transactivation of canonical Wnt signaling: result in words, Wnt-activated HEK293
Protocol: (§2) FuGENE 6 (E2962, Promega) in a 96-well plate format was used for the transfection of HEK293 and SW480 cells according to the manufacturer's instructions. […] SW480 cells were co-transfected with 60 ng of the TOPFlash or FOPFlash reporter gene and 40 ng pCMV-RL normalization reporter. Cells were cultured in DMEM and 10% fatal bovine serum at 37° C. for 24 h, and different concentrations of inhibitors were then added. After 24 h, the luciferase reporter activity was measured using the Dual-Glo system (E2940, Promega). Normalized luciferase activity in response to the treatment with the inhibitors was compared with that obtained from the cells treated with DMSO. Experiments were performed in triplicate.

[8] = target: T3, β-catenin/Tcf4 PPI; details: for inhibitory potency for the β-catenin/Tcf PPI in the biochemical assays: result in words, FP and AlphaScreen
Text: as §3

[9] = target: T3, β-catenin/Tcf4 PPI
Text: as §3

[10] = system: FOPFlash luciferase (reporter with eight mutant Tcf binding sites); assay type: cell-based, human
Protocol: as §2

[11] = system: Wnt/β-catenin target genes in SW480 cells
Protocol: Total RNAs were extracted with TRIzol (Ser. […] The threshold cycle (CT) values were normalized to that of internal reference GAPDH. The primer pairs for human GAPDH were forward: [NT] and reverse: [NT]; for human HPRT forward: [NT] and reverse: [NT]; for human AXIN2 forward: [NT] and reverse: [NT]; for human c-myc forward: [NT] and reverse: [NT]; and for human cyclin D1 forward: [NT] and reverse: [NT]. Experiments were performed in triplicate.

[12] = read-out: FP Ki ± SD, Table 6, fragments of 18
[13] = read-out: Ki ± SD FP, Table 8, resynthesized 18 and derivatives
[14] = read-out: Ki ± SD AlphaScreen, Table 8, resynthesized 18 and derivatives

IC50 [1]: 1.8 ± 0.13 µM
IC50 [3]: 1.2 ± 0.48 µM
IC50 [4]: 5.5 ± 1.3 µM
Structure (SMILES): COC1=C(C[C@H](C)O)C2c3c(c(O)cc4c3-c3c(cc(O)c5c3C2C(C[C@H](C)O)=C(OC)C5=O)OCO4)C1=O (stereo partly shown) [Compound 2]
Ki [2]: 130 ± 0.38 µM
Ki [5]: 150 ± 19 µM

Ki [6]: > 2000 µM
Structure (SMILES): NC(=O)c1nonc1N [Compound 22]

Structure (SMILES): Nc1nonc1NC(=O)Cn1c2ccccc2c2nc3nonc3nc21 [Compound 26, 2-(5H-[1,2,5]Oxadiazolo[3′,4′:5,6]Pyrazino[2,3-B]Indol-5-yl)-N-(4-Amino-1,2,5-Oxadiazol-3-yl)Acetamide]
growth of HCT116 cells [3]: did not exhibit the inhibitory activities
growth of SW480 cells [4]: did not exhibit the inhibitory activities
TOPFlash luciferase activity / transactivation of canonical Wnt signaling [7]: did not inhibit

Ki [8, 12]: 240 ± 4.6 µM
inhibitory potency for the β-catenin/Tcf PPI in the biochemical assays [8]: some inhibitory activities
Structure (SMILES): NC(=S)N/N=C1/c2ccccc2-c2nc3nonc3nc21 [Compound 21]

Ki [8, 12]: 230 ± 6.2 µM
Structure (SMILES): N/N=C1/c2ccccc2-c2nc3nonc3nc21 [Compound 20, (Z)-9-Hydrazono-9H-Indeno[1,2-B][1,2,5]Oxadiazolo[3,4-E]Pyrazine]

IC50 [1]: 300 µM
IC50 [3]: 250 ± 21 µM
IC50 [4]: 110 ± 21 µM
Ki ([8]; read-out: Ki + SD FP, Table 3, purchased screening hits): 8.7 ± 1 µM
Ki ([9]; read-out: Ki + SD AlphaScreen, Table 3, purchased screening hits): 12 ± 0.78 µM
Structure (SMILES): O=C(O)c1cc2nc(-c3ccc4c(c3)OCO4)c(-c3ccc4c(c3)OCO4)nc2cc1O [Compound 17]
IC50 ([7]; Homo sapiens, pcDNA3.1-β-catenin transfected HEK293, 24 h, read-out: TOPFlash IC50 ± SD Wnt-activated HEK293): > 100 µM

Structure (SMILES): O=C(O)c1ccc2nc(-c3ccc(Cl)cc3)c(-c3ccc(Cl)cc3)nc2c1 [Compound 15]
IC50 [1]: 41 ± 1 µM
IC50 [3]: 22 ± 5.9 µM
IC50 [4]: 38 ± 1.1 µM

Ki [8, 12]: 310 ± 11 µM
inhibitory potency for the β-catenin/Tcf PPI in the biochemical assays [8]: some inhibitory activities
Structure (SMILES): O=C1c2ccccc2-c2nc3nonc3nc21 [Compound 19B, 9H-Indeno[1,2-B][1,2,5]Oxadiazolo[3,4-E]Pyrazin-9-One]

Structure (SMILES): CCc1ccc(-c2nc(CSCC(=O)NCCc3ccccc3)c(C)o2)cc1 [Compound 8, reference compound]
FOPFlash luciferase reporter activity ([10]; reference inhibitors): inhibited

Structure (SMILES): c1ccc2c(c1)c1nc3nonc3nc1n2CCc1nnn[nH]1 [Compound 37, 5-(2-(2H-Tetrazol-5-yl)Ethyl)-5H-[1,2,5]Oxadiazolo[3′,4′:5,6]Pyrazino[2,3-B]Indole]
expression of house-keeping gene HPRT ([11]; SW480): did not affect
expression of AXIN2, cyclin D1, and c-myc (mRNA) ([11]; SW480, dose-dependent): down-regulated
FOPFlash luciferase activity ([10]; even at 200 μM, pcDNA3.1-β-catenin transfected HEK293): did not affect
IC50 [4]: 20 µM
TOPFlash luciferase activity / transactivation of canonical Wnt signaling [7]: suppressed the TOPFlash luciferase activity in a dose-dependent manner

Ki [8, 13]: 280 ± 12 µM
inhibitory potency for the β-catenin/Tcf PPI in the biochemical assays [8]: poor inhibitory potency
Ki [9, 14]: 120 ± 8.7 µM
Structure (SMILES): c1ccc2c(c1)[nH]c1nc3nonc3nc12 [Compound 27, 5H-[1,2,5]Oxadiazolo[3′,4′:5,6]Pyrazino[2,3-B]Indole]

Structure (SMILES): COC(=O)CCn1c2ccccc2c2nc3nonc3nc21 [Compound 30, Methyl 3-(5H-[1,2,5]Oxadiazolo[3′,4′:5,6]Pyrazino[2,3-B]Indol-5-yl)Propanoate]
growth of HCT116 cells [3]: did not exhibit the inhibitory activities
growth of SW480 cells [4]: did not exhibit the inhibitory activities

Structure (SMILES): O=C(O)CCCn1c2ccccc2c2nc3nonc3nc21 [Compound 33, 4-(5H-[1,2,5]Oxadiazolo[3′,4′:5,6]Pyrazino[2,3-B]Indol-5-yl)Butanoic Acid]
growth of HCT116 cells [3]: did not exhibit the inhibitory activities
growth of SW480 cells [4]: did not exhibit the inhibitory activities
TOPFlash luciferase activity / transactivation of canonical Wnt signaling [7]: did not inhibit

Ki [8, 12]: 1700 ± 28 µM
inhibitory potency for the β-catenin/Tcf PPI in the biochemical assays [8]: some inhibitory activities
Structure (SMILES): Nc1nonc1C(=O)N1CCCC1 [Compound 23]

Ki [6]: > 2000 µM
Structure (SMILES): CC(C)CNC(=O)c1nonc1N [Compound 24]

Structure (SMILES): CCOC(=O)CCCn1c2ccccc2c2nc3nonc3nc21 [Compound 32, Ethyl 4-(5H-[1,2,5]Oxadiazolo[3′,4′:5,6]Pyrazino[2,3-B]Indol-5-yl)Butanoate]
growth of HCT116 cells [3]: did not exhibit the inhibitory activities
growth of SW480 cells [4]: did not exhibit the inhibitory activities

Structure (SMILES): O=C(O)c1cc(-c2ccc(Oc3ccc(Cl)cc3)cc2)on1 [Compound 16]
IC50 [1]: 430 ± 25 µM
IC50 [3]: > 400 µM
IC50 [4]: > 400 µM

Ki [8, 12]: 1700 ± 37 µM
inhibitory potency for the β-catenin/Tcf PPI in the biochemical assays [8]: some inhibitory activities
Structure (SMILES): Nc1nonc1C(=O)NCc1ccccc1 [Compound 25]

Ki [8, 13]: 160 ± 8.9 µM
Ki [9, 14]: 120 ± 4.2 µM
Structure (SMILES): N#CCCCn1c2ccccc2c2nc3nonc3nc21 [Compound 36, 4-(5H-[1,2,5]Oxadiazolo[3′,4′:5,6]Pyrazino[2,3-B]Indol-5-yl)Butanenitrile]
